Experiment: solvent given as SMILES

In the case of `COc1cccc(-n2c(-c3ccc(F)cc3)nc(C)c2C)c1`, the emission maximum (in C1COCCO1) is reported as 369 nm, the emission maximum (in CC#N) is reported as 365.4 nm and the emission maximum (in CCCCCC) is reported as 369 nm. It also gave an emission maximum (in CCCCO) of 370 nm, an emission maximum (in CCO) of 371 nm and an emission maximum (in CCOC(C)=O) of 367 nm. For the same compound, the emission maximum (in CO) was 368 nm, the emission maximum (in ClC(Cl)Cl) was 369 nm and the emission maximum (in ClCCl) was 368 nm. The emission maximum (in c1ccccc1) was 365 nm.

`O=C(O)CCCCCn1c2ccc(Br)cc2c(=O)c2cc(Br)ccc21` gave an emission maximum (in O) of 439 nm.

In the case of `COc1ccc2c(c1)c1cc(OC)ccc1n2-c1cccc(-n2c3ccc(OC)cc3c3cc(OC)ccc32)c1C#N`, the emission maximum (in Cc1ccccc1) is reported as 460 nm and the emission maximum (in O=P(c1ccccc1)(c1ccccc1)c1ccccc1Oc1ccccc1P(=O)(c1ccccc1)c1ccccc1) is reported as 462 nm.

With `CC(C)[Si](C#Cc1ccc(C#C[Si](C(C)C)(C(C)C)C(C)C)c2nc3c(ccc4cc5ccccc5cc43)nc12)(C(C)C)C(C)C` the emission maximum (in CCCCCC) was 466 nm.

Work on `CCc1c(C)c2n(c1C)[B-](F)(F)[N+]1=C(C=C3C=Cc4ccccc43)C=CC1=C2C` yielded an emission maximum (in C1CCCCC1) of 596 nm.

Work on `CC(C)(C)c1ccc2c(c1)c1cc(C(C)(C)C)ccc1n2-c1ccc(C#Cc2ccc3c4ccc(C#Cc5ccc(-n6c7ccc(C(C)(C)C)cc7c7cc(C(C)(C)C)ccc76)cc5)cc4n(-c4ccc(C(F)(F)F)cc4)c3c2)cc1` yielded an emission maximum (in ClCCl) of 431 nm.

`CN(C)c1ccc2nc(-c3ccc(/C=N/c4ccccc4)cc3)sc2c1` gave an emission maximum (in C1CCCCC1) of 445 nm, an emission maximum (in CC#N) of 610 nm and an emission maximum (in CO) of 639 nm. The emission maximum (in ClC(Cl)Cl) was 534 nm.

With `C(=C\c1nc2ccccc2[nH]1)/c1ccc(-c2nc3c4cccnc4c4ncccc4c3[nH]2)cc1` the emission maximum (in C1CCOC1) was 444 nm, the emission maximum (in CC#N) was 450 nm and the emission maximum (in CO) was 452 nm. It also gave an emission maximum (in ClCCl) of 447 nm.

With `CC(C)[Si](C#Cc1c2nsnc2c(C#C[Si](C(C)C)(C(C)C)C(C)C)c2nc3c(ccc4cc5ccccc5cc43)nc12)(C(C)C)C(C)C` the emission maximum (in CCCCCC) was 605 nm.

For `CCOC(=O)CCOc1ccc(C(c2c(C)[nH]c3ccccc23)c2c(C)[nH]c3ccccc23)cc1OC`, the emission maximum (in C1CCCCC1) was 330 nm, the emission maximum (in CC#N) was 344 nm and the emission maximum (in CO) was 350 nm. It also gave an emission maximum (in O) of 351 nm.

From the Deep4Chem optical property database
